This test deals with IL-2 production. The test is described as follows: Inhibition of IL-2 production in PHA-activated Jurkat cells (ELISA). As to conditions: Homo sapiens, PHA 2.5 μg/mL, 20 hours, IL-2 ELISA. It counts as cell-based. The procedure:
Jurkat cells were placed in a 96 well plate (0.5 million cells per well in 1% FBS medium) then a test compound of this invention was added at different concentrations. After 10 minutes, the cells were activated with PHA (final concentration 2.5 μg/mL) and incubated for 20 hours at 37° C. under CO2. The final volume was 200 μL. Following incubation, the cells were centrifuged and the supernatants collected and stored at −70° C. prior to assaying for IL-2 production. A commercial ELISA kit (IL-2 Eli-pair, Diaclone Research, Besancon, France) was used to detect production of IL-2, from which dose response curves were obtained. The IC50 value was calculated as the concentration at which 50% of maximum IL-2 production after stimulation was inhibited versus a non-stimulation control.

Our source for the IC50 values is patent US8809396B2, “Substituted fused-ring compounds for inflammation and immune-related uses” (Synta Pharmaceuticals Corp., priority 2007, dated 2014).

One may read the IC50 as the concentration that inhibits the measured activity by half. A high value points to weaker potency. `C/C(C(=O)O)=C1/CCCc2cc(NC(=O)c3c(F)cccc3F)ccc21` [Compound 1, 2-[6-(2,6-Difluoro-benzoylamino)-3,4-dihydro-2H-naphthalen-1-ylidene]-propionic acid] showed an IC50 of over 1 µM.

`COC(=O)/C(C)=C1\CCCc2cc(NC(=O)c3c(F)cccc3F)ccc21` [Compound 2, 2-[6-(2,6-Difluoro-benzoylamino)-3,4-dihydro-2H-naphthalen-1-ylidene]-propionic acid methyl ester] displayed an IC50 of over 1 µM.

As for `C/C(C(=O)N1CCOCC1)=C1/CCCc2cc(NC(=O)c3c(F)cccc3F)ccc21` [Compound 3, 2,6-Difluoro-N-[5-(1-methyl-2-morpholin-4-yl-2-oxo-ethylidene)-5,6,7,8-tetrahydro-naphthalen-2-yl]-benzamide], the IC50 amounted to 0.018 µM.

On to `C/C(CO)=C1/CCCc2cc(NC(=O)c3c(F)cccc3F)ccc21` [Compound 5, 2,6-Difluoro-N-[5-(2-hydroxy-1-methyl-ethylidene)-5,6,7,8-tetrahydro-naphthalen-2-yl]-benzamide], for which the IC50 was over 1 µM.

Regarding `O=C(Nc1ccc2c(c1)CCCC=C2c1ccccc1)c1c(F)cccc1F` [Compound 6, 2,6-Difluoro-N-(5-phenyl-8,9-dihydro-7H-benzocyclohepten-2-yl)-benzamide], 0.168 µM corresponded to half-maximal inhibition (IC50).

For `CC1=C(c2ccccc2)c2ccc(NC(=O)c3c(F)cccc3F)cc2CCC1` [Compound 7, 2,6-Difluoro-N-(5-phenyl-6-methyl-8,9-dihydro-7H-benzocyclohepten-2-yl)-benzamide], the IC50 turned out to be 0.392 µM.

On to `Nc1ccc(C2=CCCCc3cc(NC(=O)c4c(F)cccc4F)ccc32)cc1` [Compound 8, 2,6-Difluoro-N-[5-(4-amino-phenyl)-8,9-dihydro-7H-benzocyclohepten-2-yl]-benzamide], for which the IC50 was determined as 0.146 µM.

In turn, `CC(=O)Nc1ccc(C2=CCCCc3cc(NC(=O)c4c(F)cccc4F)ccc32)cc1` [Compound 9, 2,6-Difluoro-N-[5-(4-acetylamino-phenyl)-8,9-dihydro-7H-benzocyclohepten-2-yl]-benzamide] registered an IC50 of 0.56 µM.
